Source: patent US8906929B2, “Inhibitors of human immunodeficiency virus replication” (priority 2012, dated 2014)

Test system: recombinant NL-Rluc virus
Experiment: Inhibition of HIV replication (NL-RLuc virus in MT-2 cells, luciferase readout)
Assay type: cell-based
Conditions: Human immunodeficiency virus 1, MT2, 120 h, 5 days of incubation, 10% FBS

With `Cc1nc2cc3nn2c(c1[C@H](OC(C)(C)C)C(=O)O)N1CCC(C)(CC1)OCCC[C@H](C)Oc1ccccc1-c1cccc-3c1` [Example 24, (2S)-2-(tert-Butoxy)-2-[(22S)-4,22,27-trimethyl-21,26-dioxa-1,5,7,8-tetraazahexacyclo[25.2.2.1^6,^9.1^10,^14.0^2,^7.0^15,^20]tritriaconta-2,4,6(33),8,10(32),11,13,15(20),16,18-decaen-3-yl]acetic acid] the EC50 was 8 nM.
`Cc1nc2cc3nn2c(c1[C@H](OC(C)(C)C)C(=O)O)N1CCC(C)(CC1)OCCC[C@@H](C)Oc1ccccc1-c1cccc-3c1` [Example 25, (2S)-2-(tert-Butoxy)-2-[(22R)-4,22,27-trimethyl-21,26-dioxa-1,5,7,8-tetraazahexacyclo[25.2.2.1^6,^9.1^10,^14.0^2,^7.0^15,^20]tritriaconta-2,4,6(33),8,10(32),11,13,15(20),16,18-decaen-3-yl]acetic acid] gave an EC50 of 38 nM.
In the case of `Cc1nc2cc3nn2c(c1[C@H](OC(C)(C)C)C(=O)O)N1CCC(C)(CC1)OCC=CCCOc1ccccc1-c1cccc-3c1` [Example 26, (2S)-2-(tert-Butoxy)-2-[4,28-dimethyl-21,27-dioxa-1,5,7,8-tetraazahexacyclo[26.2.2.1^6,^9.1^10,^14.0^2,^7.0^15,^20]tetratriaconta-2,4,6(34),8,10(33),11,13,15(20),16,18,24-undecaen-3-yl]acetic acid], the EC50 is reported as 41 nM.
For `Cc1nc2cc3nn2c(c1[C@H](OC(C)(C)C)C(=O)O)N1CCC(C)(CC1)OCCCCCOc1ccccc1-c1cccc-3c1` [Example 27, (2S)-2-(tert-Butoxy)-2-{4,28-dimethyl-21,27-dioxa-1,5,7,8-tetraazahexacyclo[26.2.2.1^6,^9.1^10,^14.0^2,^7.0^15,^20]tetratriaconta-2,4,6(34),8,10(33),11,13,15(20),16,18-decaen-3-yl}acetic acid], the EC50 was 10 nM.
`Cc1nc2cc3nn2c(c1[C@H](OC(C)(C)C)C(=O)O)N1CCC(C)(CC1)OCCCC[C@@H](C)Oc1ccccc1-c1cccc-3c1` [Example 28, (2S)-2-(tert-Butoxy)-2-[(22R)-4,22,28-trimethyl-21,27-dioxa-1,5,7,8-tetraazahexacyclo[26.2.2.1^6,^9.1^10,^14.0^2,^7.0^15,^20]tetratriaconta-2,4,6(34),8,10(33), 11, 13, 15 (20),16,18-decaen-3-yl]acetic acid] showed an EC50 of 40 nM.
With `Cc1nc2cc3nn2c(c1[C@H](OC(C)(C)C)C(=O)O)N1CCC(C)(CC1)OCCCC[C@H](C)Oc1ccccc1-c1cccc-3c1` [Example 29, (2S)-2-(tert-Butoxy)-2-[(22S)-4,22,28-trimethyl-21,27-dioxa-1,5,7,8-tetraazahexacyclo[26.2.2.1^6,^9.1^10,^14.0^2,^7.0^15,^20]tetratriaconta-2,4,6(34),8,10(33), 11, 13, 15 (20),16,18-decaen-3-yl]acetic acid] the EC50 was 18 nM.
With `Cc1nc2cc3nn2c(c1[C@H](OC(C)(C)C)C(=O)O)N1CCC(C)(CC1)OCCCCCCc1ccccc1-c1cccc-3c1` [Example 30, (2S)-2-(tert-Butoxy)-2-{4,28-dimethyl-27-oxa-1,5,7,8-tetraazahexacyclo[26.2.2.1^6,^9.1^10,^14.0^2,^7.0^15,^20]tetratriaconta-2,4,6(34),8,10(33), 11, 13, 15(20),16,18-decaen-3-yl}acetic acid] the EC50 was 27 nM.
In the case of `Cc1nc2cc3nn2c(c1[C@H](OC(C)(C)C)C(=O)O)N1CCC(C)(CC1)OCC=CCOc1ccc(Cl)cc1-c1cccc-3c1` [Example 31, (2S)-2-(tert-Butoxy)-2-[17-chloro-4,2,7-dimethyl-21,26-dioxa-1,5,7,8-tetraazahexacyclo[25.2.2.1^6,^9.1^10,^14.0^2,^7.0^15,^20]tritriaconta-2,4,6(33),8,10(32),11,13,15(20),16,18,23-undecaen-3-yl]acetic acid], the EC50 is reported as 6 nM.
`Cc1nc2cc3nn2c(c1[C@H](OC(C)(C)C)C(=O)O)N1CCC(C)(CC1)OCCCCOc1ccc(Cl)cc1-c1cccc-3c1` [Example 32, (2S)-2-(tert-Butoxy)-2-{17-chloro-4,27-dimethyl-21,26-dioxa-1,5,7,8-tetraazahexacyclo[25.2.2.1^6,^9.1^10,^14.0^2,^7.0^15,^20]tritriaconta-2,4,6(33),8,10(32),11,13,15(20),16,18-decaen-3-yl}acetic acid] gave an EC50 of 9 nM.
`Cc1ccc2c(c1)-c1cccc(c1)-c1cc3nc(C)c([C@H](OC(C)(C)C)C(=O)O)c(n3n1)N1CCC(C)(CC1)OCC=CCO2` [Example 33, (2S)-2-(tert-Butoxy)-2-[4,17,27-trimethyl-21,26-dioxa-1,5,7,8-tetraazahexacyclo[25.2.2.1^6,^9.1^10,^14.0^2,^7.0^15,^20]tritriaconta-2,4,6(33),8,10(32),11,13,15(20),16,18,23-undecaen-3-yl]acetic acid] was tested, and the EC50 was 8 nM.
Work on `Cc1ccc2c(c1)-c1cccc(c1)-c1cc3nc(C)c([C@H](OC(C)(C)C)C(=O)O)c(n3n1)N1CCC(C)(CC1)OC=CCCO2` [Example 34, (2S)-2-(tert-Butoxy)-2-[4,17,27-trimethyl-21,26-dioxa-1,5,7,8-tetraazahexacyclo[25.2.2.1^6,^9.1^10,^14.0^2,^7.0^15,^20]tritriaconta-2,4,6(33),8,10(32),11,13,15(20),16,18,24-undecaen-3-yl]acetic acid] yielded an EC50 of 14 nM.
Compound `Cc1ccc2c(c1)-c1cccc(c1)-c1cc3nc(C)c([C@H](OC(C)(C)C)C(=O)O)c(n3n1)N1CCC(C)(CC1)OCCCCO2` [Example 35, (2S)-2-(tert-Butoxy)-2-{4,17,27-trimethyl-21,26-dioxa-1,5,7,8-tetraazahexacyclo[25.2.2.1^6,^9.1^10,^14.0^2,^7.0^15,^20]tritriaconta-2,4,6(33),8,10(32),11,13,15(20),16,18-decaen-3-yl}acetic acid] has an EC50 of 10 nM.
Compound `Cc1nc2cc3nn2c(c1[C@H](OC(C)(C)C)C(=O)O)N1CCC(C)(CC1)OC/C=C/CCc1ccncc1-c1cccc-3c1` [Example 36, (2S)-2-(tert-Butoxy)-2-[(23E)-4,27-dimethyl-26-oxa-1,5,7,8,17-pentaazahexacyclo[25.2.2.1^6,^9.1^10,^14.0^2,^7.0^15,^20]tritriaconta-2,4,6(33),8,10(32),11,13,15(20),16,18,23-undecaen-3-yl]acetic acid] has an EC50 of 34 nM.
In the case of `Cc1nc2cc3nn2c(c1[C@H](OC(C)(C)C)C(=O)O)N1CCC(C)(CC1)OC/C=C\CCc1ccncc1-c1cccc-3c1` [Example 37, (2S)-2-(tert-Butoxy)-2-[(23Z)-4,27-dimethyl-26-oxa-1,5,7,8,17-pentaazahexacyclo[25.2.2.1^6,^9.1^10,^14.0^2,^7.0^15,^20]tritriaconta-2,4,6(33),8,10(32), 11, 13, 15(20),16,18,23-undecaen-3-yl]acetic acid], the EC50 is reported as 2 nM.
In the case of `Cc1nc2cc3nn2c(c1[C@H](OC(C)(C)C)C(=O)O)N1CCC(C)(CC1)OCCCCCc1ccncc1-c1cccc-3c1` [Example 38, (2S)-2-(tert-Butoxy)-2-{4,27-dimethyl-26-oxa-1,5,7,8,17-pentaazahexacyclo[25.2.2.1^6,^9.1^10,^14.0^2,^7.0^15,^20]tritriaconta-2,4,6(33),8,10(32), 11, 13, 15 (20),16,18-decaen-3-yl}acetic acid], the EC50 is reported as 2 nM.
